Data: US20240279338A1, “Combination Treatment of Cancer” (Ares Trading S.A., priority 2021, published 2024)

Columns and labels:
[1] = test system: human T cells co-cultured with MDA-MB-231 tumor cells; test: Rescue of IFNγ secretion from EBV-specific human T cells co-cultured with MDA-MB-231 tumor cells in presence of NECA; format: cell-based; settings: Compound A 100 nM; bintrafusp alfa 1 μg/ml; 10 μM NECA; 74 hours of co-culture; T cells:tumor cells 0.5:1; ELISA
Description: Then 10 μM NECA was added to the corresponding groups and 1.3×10^4 of T cells in 100 μl volume were transferred per well of 96-well flat bottom plate with 2.6×10^4 cells/well of MDA-MB-231 tumor cells pre-loaded with EBV peptide (30 ng/ml, […], 21st Century) in 100 μl of RPM11640 media, supplemented with 10% FBS. The final ratio for T cells:MDA-MB-231 tumor cells=0.5:1. Cell culture supernatants were collected after 74 hours of co-culture, and IFNγ levels were measured using human IFNγ ELISA Kit (R&D Systems) according to manufacturer instructions. The percentage of IFNγ secretion rescue was calculated using following formula: 100%−(IFNγ in samples treated with NECA and Compound A alone or combination with bintrafusp alfa minus IFNγ in control sample)[…](IFNγ in samples with NECA minus IFNγ in control sample)*100%. Representative graph with the results shown as average of three samples per treatment group±SEM. P-values are calculated using one-way ANOVA Tukey comparison test. […]
Briefly, MDA-MB-231 tumor cells were seeded to the flat bottom 96-well plate at 2.6×10^4 cells/well (in 100 μl of RPMI1640 media, supplemented with 10% FBS) and loaded with EBV peptide (30 ng/ml, […], 21st Century). […] Cell culture supernatants were collected after 74 hours of co-culture, and IFNγ levels were measured using human IFNγ ELISA Kit (R&D Systems) according to manufacturer instructions. […]

E0771 cells = test: CD73hi E0771 syngeneic tumor model, tumor growth; format: in vivo, mice; settings: for tumor growth inhibition, T/C: E0771, female C57BL/6 mice, Day 18 post treatment initiation
Description: Female C57BL/6 mice were inoculated with 1.5×10^5 E0771 cells into the right mammary fat pad and were treated with Compound A (300 mg/kg po, BID), bintrafusp alfa (8.2 mg/kg iv, days 0, 3, 6), Compound A+bintrafusp alfa, when average tumor volume reached approximately 75 mm^3. Vehicle (po, BID) and isotype control antibody injections (6.65 mg/kg iv, days 0, 3, 6) were used as controls. (A) Average tumor volumes with SEM, and (B) individual tumor volumes are presented. Tumor volume data were analyzed using two-way ANOVA followed by Tukey's multiple comparison test.
To determine whether combined treatment with the dual A2A/A2B receptor inhibitor “Compound A” ((S)-7-Oxa-2-aza-spiro[4.5]decane-2-carboxylic acid [7-(3,6-dihydro-2H-pyran-4-yl)-4-methoxy-thiazolo[4,5-c]pyridin-2-yl]-amide) and bintrafusp alfa can inhibit tumor growth in either CD73^hi or CD73^low models, tumor growth was monitored in […] syngeneic tumor models. Animals were inoculated with either CD73^hi tumor cells (4T1, E0771, or EMT6) or with CD73^low MC38, H22 or MBT2 tumor cells. For all tumor models, animals were treated with either 1) vehicle and isotype, 2) Compound A and isotype, 3) vehicle and bintrafusp alfa, or 4) Compound A and bintrafusp alfa.
In the third CD73^hi tumor model, female C57BL/6 mice were inoculated with 1.5×10^5 E0771 cells into the right mammary fat pad and were randomized into treatment groups when average tumor volume reached approximately 75 mm^3. […] Thus, to test its combination potential with Compound A in this model we had to reduce the dose for bintrafusp alfa from 24 mg/kg (iv, days 0, 3, and 6) down to 8.2 mg/kg (iv, days 0, 3, 6). Thus, E0771 tumor-bearing mice were treated with Compound A (300 mg/kg po, BID), bintrafusp alfa (8.2 mg/kg iv, days 0, 3, 6), Compound A+bintrafusp alfa starting the day 0 (when they were randomized into treatment groups). Vehicle (po, BID) and isotype control antibody injections (6.65 mg/kg iv, days 0, 3, 6) were used as controls.

NT5E (CD73) = test: RNAseq gene expression in 4T1 tumors; format: in vivo, mice; settings: bintrafusp alfa 24.6 mg/kg iv, Day 6 post treatment, vs isotype
Description: (§1) FIG. 4: Bintrafusp alfa increases expression of A2B in CD73h adenosine-rich 4T1 tumor model, but not in CD73^low adenosine-low MC38 tumor model. For the 4T1 tumor model, female BALB/c mice were inoculated with 2×10^5 4T1 cells into the right mammary fat pad. For the MC38 tumor model, female C57BL/6 mice were inoculated subcutaneously in the right flank with MC38 cells (1×10^6). Animals in both studies were randomized into the groups and treatments started when the average tumor size reached approximately 100-150 mm^3. For both models, there were 15 mice in each group. The animals were treated with isotype control (20 mg/kg, iv) or bintrafusp alfa (24.6 mg/kg, iv) on days 0, 1, and 2. Tumors were harvested on Day 6 post treatment start, flash frozen, and used for RNASeq analysis. Gene expression levels of (A) NT5E, (B) ADORA2A (A2A), and (C) ADORA2B (A2B) are presented as mean±SEM. P-values were calculated using two-way ANOVA.
(§2) To determine whether bintrafusp alfa treatment modulates expression of A2A or A2B receptors or NT5E (gene encoding CD73), mice with established 4T1 and MC38 tumors were treated with 20 mg/kg isotype antibody or 24.6 mg/kg bintrafusp alfa.

ADORA2B (A2B) = test: RNAseq gene expression in 4T1 tumors; format: in vivo, mice; settings: CD73hi 4T1 tumors; bintrafusp alfa 24.6 mg/kg iv; Day 6 post treatment; vs isotype
Description: as §1, §2

ADORA2A (A2A) = test: RNAseq gene expression in 4T1 tumors; format: in vivo, mice; settings: bintrafusp alfa 24.6 mg/kg iv, Day 6 post treatment, vs isotype
Description: as §1, §2

[2] = Compound A 300 mg/kg po BID, bintrafusp alfa 8.2 mg/kg iv days 0, 3, 6

| Compound | rescue of IFNγ secretion [1] | tumor growth inhibition, T/C (E0771 cells; [2]) | mice with CR (complete responses) (E0771 cells; E0771, Compound A 300 mg/kg po BID, bintrafusp alfa 8.2 mg/kg iv days 0, 3, 6) | expression of NT5E (CD73) (NT5E (CD73)) | expression of A2B (ADORA2B (A2B)) | expression of A2A (ADORA2A (A2A)) | sensitivity of the tumor model (E0771 cells; E0771, bintrafusp alfa original dose 24.6 mg/kg iv days 0, 3, and 6) |
| --- | --- | --- | --- | --- | --- | --- | --- |
| COc1ncc(C2=CCOCC2)c2sc(NC(=O)N3CC[C@@]4(CCCOC4)C3)nc12 [Compound A, (S)-7-Oxa-2-aza-spiro[4.5]decane-2-carboxylic acid [7-(3,6-dihydro-2H-pyran-4-yl)-4-methoxy-thiazolo[4,5-c]pyridin-2-yl]-amide] | approx. 71% | 72.9% | 1 | – | – | – | – |
| bintrafusp alfa: anti-PD-L1:TGFβRII fusion protein, CAS 1918149-01-5; human IgG1 antibody against PD-L1 fused to extracellular domain of human TGF-β receptor II | ~24% | 65.7% | – | no changes | increased | no changes | high sensitivity |
